In brackets after ≈: the same amount, converted by molar mass. Several values for one entry are separate records, joined by “and”; a condition that tells them apart may be missing. Identical values can stand only once. Like-named read-outs stand apart in the source and are kept apart here.
Assays:
M. smegmatis = assay: In vitro antimycobacterial activity, MABA; assay type: cell-based, Mycobacterium smegmatis; conditions: Mycolicibacterium smegmatis, read-out: MIC M. smeg
Mtb H37Ra [1] = conditions: cited from earlier work
M. aurum = assay: In vitro antimycobacterial activity, MABA; assay type: cell-based, Mycobacterium aurum; conditions: Mycolicibacterium aurum, read-out: MIC M. aurum
Mtb H37Ra [2] = assay: In vitro antimycobacterial activity, Microplate Alamar Blue Assay (MABA); assay type: cell-based, Mycobacterium tuberculosis; conditions: for MIC: Mycobacterium tuberculosis, H37RA, read-out: MIC Mtb H37Ra; for SI (selectivity index): IC50 HepG2 (µM)/MIC Mtb H37Ra (µM)
HepG2 cell line = assay: In vitro cytotoxicity, CellTiter 96 (MTS); assay type: cell-based; conditions: Homo sapiens, read-out: HepG2 IC50
C. albicans = assay: In vitro antifungal activity, microdilution broth (EUCAST); assay type: cell-based; conditions: Candida albicans; 48 h; standards; read-out: MIC Candida albicans
A. fumigatus = assay: as above; assay type: cell-based; conditions: Aspergillus fumigatus; 48 h; standards; read-out: MIC Aspergillus fumigatus
A. flavus = assay: as above; assay type: cell-based; conditions: Aspergillus flavus; 48 h; standards; read-out: MIC Aspergillus flavus
C. krusei = assay: as above; assay type: cell-based, Candida krusei; conditions: Pichia kudriavzevii; 48 h; standards
C. parapsilosis = assay: as above; assay type: cell-based, Candida parapsilosis; conditions: Lodderomyces parapsilosis; 48 h; standards
L. corymbifera = assay: as above; assay type: cell-based; conditions: Lichtheimia corymbifera; 48 h; standards; read-out: MIC Lichtheimia corymbifera
T. interdigitale = assay: as above; assay type: cell-based; conditions: Trichophyton interdigitale; 72 h; standards; read-out: MIC Trichophyton interdigitale
C. tropicalis = assay: as above; assay type: cell-based; conditions: Candida tropicalis; 48 h; standards
P. aeruginosa = assay: In vitro antibacterial activity, microdilution broth (EUCAST); assay type: cell-based; conditions: Pseudomonas aeruginosa; 48 h; standards; read-out: MIC Pseudomonas aeruginosa
S. marcescens = assay: as above; assay type: cell-based; conditions: Serratia marcescens; 48 h; standards; read-out: MIC Serratia marcescens
S. epidermidis = assay: as above; assay type: cell-based; conditions: Staphylococcus epidermidis; 48 h; standards; read-out: MIC Staphylococcus epidermidis
E. faecalis = assay: as above; assay type: cell-based; conditions: Enterococcus faecalis; 48 h; standards; read-out: MIC Enterococcus faecalis
S. aureus = assay: as above; assay type: cell-based; conditions: Staphylococcus aureus; 48 h; standards; read-out: MIC Staphylococcus aureus
E. coli = assay: as above; assay type: cell-based; conditions: Escherichia coli; 48 h; standards; read-out: MIC Escherichia coli
K. pneumoniae = assay: as above; assay type: cell-based; conditions: Klebsiella pneumoniae; 48 h; standards; read-out: MIC Klebsiella pneumonia
[3] = HepG2, cytotoxicity, 24 h incubation, CellTiter 96

NC(=O)c1cnccn1 [PZA, pyrazinamide, reference compound]
MIC (M. smegmatis; MABA): ≥ 500 µg/mL
MIC for Mtb H37Ra (Mtb H37Ra [1]; acidic pH, Figure 2): < 3.91 µg/mL
MIC for Mtb H37Ra (Mtb H37Ra [1]; neutral pH, Figure 2): > 500 µg/mL
MIC (M. aurum; MABA): ≥ 500 µg/mL
MIC (Mtb H37Ra [2]): ≥ 500 µg/mL and ≥ 4060 µM
IC50 (HepG2 cell line; HepG2, 24 h): > 1000 µM

C[C@@H](c1ncncc1F)[C@](O)(Cn1cncn1)c1ccc(F)cc1F [voriconazole]
MIC (C. albicans): > 16 µg/mL
MIC (A. fumigatus): 1 µg/mL (≈ 2.86 µM)
MIC (A. flavus): > 16 µg/mL
MIC (C. krusei): 0.5 µg/mL (≈ 1.43 µM)
MIC (C. parapsilosis): 8 µg/mL (≈ 22.9 µM)
MIC (L. corymbifera): > 16 µg/mL
MIC (T. interdigitale): > 16 µg/mL
MIC (C. tropicalis): > 16 µg/mL

CC(=O)Oc1ccc(COC(=O)c2cnc3ccccc3n2)cc1 [4-acetoxybenzyl quinoxaline-2-carboxylate]
MIC for Mtb H37Ra (Mtb H37Ra [1]; Figure 2b): 0.5 µg/mL

O=C(NCc1ccccc1)c1cnc2ccccc2n1 [Compound 15]
MIC (M. smegmatis; MABA): ≥ 125 µg/mL
MIC (M. aurum; MABA): ≥ 125 µg/mL
SI (selectivity index) (Mtb H37Ra [2]): >17
MIC Mtb H37Ra (Mtb H37Ra [2]; MABA, pH of testing medium 6.6): 15.625 (15) µg/mL
MIC (Mtb H37Ra [2]): 15.6 µg/mL and 59.3 µM
IC50 (HepG2 cell line; [3]): > 1000 µM

O=C(O)c1cn(C2CC2)c2cc(N3CCNCC3)c(F)cc2c1=O [CPX, ciprofloxacin]
MIC (P. aeruginosa): 0.128 µg/mL (≈ 0.386 µM)
MIC (M. smegmatis; MABA): 0.125 µg/mL
MIC (S. marcescens): 0.256 µg/mL (≈ 0.773 µM)
MIC (S. epidermidis): > 1.02 µg/mL
MIC (E. faecalis): 0.512 µg/mL (≈ 1.55 µM)
MIC (M. aurum; MABA): 0.0156 µg/mL
MIC (Mtb H37Ra [2]): 0.25 µg/mL and 0.75 µM
MIC (S. aureus): 0.128 to 0.256 µg/mL (≈ 0.386 to 0.773 µM)
MIC (E. coli): 0.008 µg/mL (≈ 0.0241 µM)
IC50 (HepG2 cell line; [3]): > 500 µM
MIC (K. pneumoniae): > 1.02 µg/mL

Cc1ccc(CNC(=O)c2cnc3ccccc3n2)cc1 [Compound 24]
MIC (M. smegmatis; MABA): ≥ 250 µg/mL
MIC (M. aurum; MABA): ≥ 250 µg/mL
SI (selectivity index) (Mtb H37Ra [2]): 3.11
MIC (Mtb H37Ra [2]): 7.81 µg/mL and 28.2 µM
IC50 (HepG2 cell line; [3]): 87.7 µM

O=C(Nc1cccc(O)c1)c1cnc2ccccc2n1 [Compound 2]
MIC (M. smegmatis; MABA): ≥ 125 µg/mL
MIC (M. aurum; MABA): ≥ 125 µg/mL
SI (selectivity index) (Mtb H37Ra [2]): >4.20
MIC (Mtb H37Ra [2]): 15.6 µg/mL and 58.9 µM
IC50 (HepG2 cell line; [3]): > 250 µM

Cc1ccccc1CNC(=O)c1cnc2ccccc2n1 [Compound 23]
MIC (M. smegmatis; MABA): ≥ 125 µg/mL
MIC (M. aurum; MABA): ≥ 125 µg/mL
SI (selectivity index) (Mtb H37Ra [2]): 5.60
MIC (Mtb H37Ra [2]): 7.81 µg/mL and 28.2 µM
IC50 (HepG2 cell line; [3]): 157 µM

O=C(Nc1cccc(F)c1)c1cnc2ccccc2n1 [Compound 8]
MIC (M. smegmatis; MABA): ≥ 500 µg/mL
MIC (M. aurum; MABA): ≥ 500 µg/mL
MIC (Mtb H37Ra [2]): 250 µg/mL (≈ 935 µM)
IC50 (HepG2 cell line; [3]): > 100 µM

O=C(Nc1ccccc1)c1cnc2ccccc2n1 [Compound 1]
MIC (M. smegmatis; MABA): ≥ 250 µg/mL
MIC (M. aurum; MABA): ≥ 250 µg/mL
MIC (Mtb H37Ra [2]): ≥ 500 µg/mL
IC50 (HepG2 cell line; [3]): > 50 µM

O=C(NCc1ccc(Cl)c(Cl)c1)c1cnc2ccccc2n1 [Compound 31]
MIC (M. smegmatis; MABA): ≥ 500 µg/mL
MIC (M. aurum; MABA): ≥ 500 µg/mL
SI (selectivity index) (Mtb H37Ra [2]): 2.80
MIC (Mtb H37Ra [2]): 7.81 µg/mL and 23.5 µM
IC50 (HepG2 cell line; [3]): 66.9 µM

O=C(Nc1ccccc1Cl)c1cnc2ccccc2n1 [Compound 12]
MIC (M. smegmatis; MABA): ≥ 125 µg/mL
MIC (M. aurum; MABA): ≥ 125 µg/mL
MIC (Mtb H37Ra [2]): ≥ 125 µg/mL
IC50 (HepG2 cell line; [3]): > 50 µM

O=C(NCc1cccc(Cl)c1)c1cnc2ccccc2n1 [Compound 26]
MIC (M. smegmatis): 105 µM
MIC (M. smegmatis; MABA): 31.2 µg/mL
MIC (M. aurum): 105 µM
MIC (M. aurum; MABA): 31.2 µg/mL
SI (selectivity index) (Mtb H37Ra [2]): 5.34
MIC (Mtb H37Ra [2]): 7.81 µg/mL and 26.2 µM
IC50 (HepG2 cell line; [3]): 140 µM

O=C(NCCCc1ccccc1)c1cnc2ccccc2n1 [Compound 33, N-phenylpropylquinoxaline-2-carboxamide]
MIC (M. smegmatis; MABA): ≥ 500 µg/mL
MIC (M. aurum; MABA): ≥ 500 µg/mL
SI (selectivity index) (Mtb H37Ra [2]): 2.7
MIC (Mtb H37Ra [2]): 15.6 µg/mL and 53.6 µM
IC50 (HepG2 cell line; [3]): 146 µM

C[C@@H]1[C@H](O)[C@@H](C)/C=C/C=C/C=C/C=C/C=C/C=C/C=C/[C@H](O[C@@H]2O[C@H](C)[C@@H](O)[C@H](N)[C@@H]2O)C[C@@H]2O[C@](O)(C[C@@H](O)C[C@@H](O)[C@H](O)CC[C@@H](O)C[C@@H](O)CC(=O)O[C@H]1C)C[C@H](O)[C@H]2C(=O)O [amphotericin B]
MIC (C. albicans): 0.5 µg/mL (≈ 0.541 µM)
MIC (A. fumigatus): 1 µg/mL (≈ 1.08 µM)
MIC (A. flavus): 8 µg/mL (≈ 8.66 µM)
MIC (C. krusei): 1 µg/mL (≈ 1.08 µM)
MIC (C. parapsilosis): 0.5 µg/mL (≈ 0.541 µM)
MIC (L. corymbifera): 0.5 µg/mL (≈ 0.541 µM)
MIC (T. interdigitale): 2 µg/mL (≈ 2.16 µM)
MIC (C. tropicalis): 1 µg/mL (≈ 1.08 µM)

O=C(NCc1ccc(O)cc1)c1cnc2ccccc2n1 [Compound 17]
MIC (M. smegmatis; MABA): ≥ 500 µg/mL
MIC (M. aurum; MABA): 500 µg/mL
SI (selectivity index) (Mtb H37Ra [2]): >1.1
MIC (Mtb H37Ra [2]): 62.5 µg/mL and 224 µM
IC50 (HepG2 cell line; [3]): > 250 µM

O=C(Nc1ccc(F)cc1)c1cnc2ccccc2n1 [Compound 9]
MIC (M. smegmatis; MABA): ≥ 500 µg/mL
MIC (M. aurum; MABA): ≥ 500 µg/mL
SI (selectivity index) (Mtb H37Ra [2]): >1.71
MIC (Mtb H37Ra [2]): 15.6 µg/mL and 58.5 µM
IC50 (HepG2 cell line; [3]): > 100 µM

COc1ccc(NC(=O)c2cnc3ccccc3n2)cc1 [Compound 5]
MIC (M. smegmatis; MABA): ≥ 125 µg/mL
MIC (M. aurum; MABA): ≥ 125 µg/mL
MIC (Mtb H37Ra [2]): ≥ 125 µg/mL
IC50 (HepG2 cell line; [3]): > 50 µM

O=C(Nc1ccc(F)cc1F)c1cnc2ccccc2n1 [Compound 11]
MIC (M. smegmatis; MABA): ≥ 500 µg/mL
MIC (M. aurum; MABA): ≥ 500 µg/mL
MIC (Mtb H37Ra [2]): ≥ 500 µg/mL
IC50 (HepG2 cell line; [3]): > 250 µM

O=C(NC1CCCCC1)c1cnc2ccccc2n1 [Compound 6]
MIC (M. smegmatis): 122 µM
MIC (M. smegmatis; MABA): 31.2 µg/mL
MIC (M. aurum; MABA): ≥ 500 µg/mL
SI (selectivity index) (Mtb H37Ra [2]): >8.17
MIC (Mtb H37Ra [2]): 31.2 µg/mL and 122 µM
IC50 (HepG2 cell line; [3]): > 1000 µM

O=C(NCc1ccc(Cl)cc1Cl)c1cnc2ccccc2n1 [Compound 30]
MIC (M. smegmatis; MABA): ≥ 125 µg/mL
MIC (M. aurum; MABA): ≥ 125 µg/mL
MIC (Mtb H37Ra [2]): ≥ 500 µg/mL
IC50 (HepG2 cell line; [3]): > 100 µM

O=C(Nc1cccc(Cl)c1)c1cnc2ccccc2n1 [Compound 13]
MIC (M. smegmatis; MABA): ≥ 500 µg/mL
MIC (M. aurum; MABA): ≥ 500 µg/mL
MIC (Mtb H37Ra [2]): ≥ 500 µg/mL
IC50 (HepG2 cell line; [3]): > 25 µM

COc1cccc(CNC(=O)c2cnc3ccccc3n2)c1 [Compound 19]
MIC (M. smegmatis): ≥ 500 µg/mL
MIC (M. aurum): ≥ 500 µg/mL
SI (selectivity index) (Mtb H37Ra [2]): >21.3
MIC (Mtb H37Ra [2]): 15.6 µg/mL and 47 µM
IC50 (HepG2 cell line; [3]): > 1000 µM

O=C(Nc1cccc(C(F)(F)F)c1)c1cnc2ccccc2n1 [Compound 14]
MIC (M. smegmatis; MABA): ≥ 125 µg/mL
MIC (M. aurum; MABA): ≥ 125 µg/mL
MIC (Mtb H37Ra [2]): ≥ 500 µg/mL
IC50 (HepG2 cell line; [3]): > 25 µM

O=C(Nc1ccc(O)cc1)c1cnc2ccccc2n1 [Compound 3]
MIC (M. smegmatis; MABA): ≥ 500 µg/mL
MIC (M. aurum; MABA): ≥ 500 µg/mL
SI (selectivity index) (Mtb H37Ra [2]): >1.01
MIC (Mtb H37Ra [2]): 62.5 µg/mL and 236 µM
IC50 (HepG2 cell line; [3]): > 250 µM

CO[C@H]1/C=C/O[C@@]2(C)Oc3c(C)c(O)c4c(O)c(c(/C=N/N5CCN(C)CC5)c(O)c4c3C2=O)NC(=O)/C(C)=C\C=C\[C@H](C)[C@H](O)[C@@H](C)[C@@H](O)[C@@H](C)[C@H](OC(C)=O)[C@@H]1C [RIF, rifampicin, reference compound]
MIC (M. smegmatis): 12.5 µg/mL
MIC (M. aurum): 0.39 µg/mL
MIC (Mtb H37Ra [2]): 0.00313 µg/mL and 0.0038 µM
IC50 (HepG2 cell line; [3]): > 500 µM

From paper PMC8399443, “Synthesis, Biological Evaluation, and In Silico Modeling of N-Substituted Quinoxaline-2-Carboxamides” (Pharmaceuticals, 2021)
